Measurements taken from PubChem BioAssay AID1963845 (Molecular Pharmacology Branch, DTP, NCI, 2024).

Test system: 429239-143-T-J1-PDC complex spheroid viability
Experiment: Anticancer human tumor 429239-143-T-J1-PDC patient-derived small cell lung carcinoma cell line growth inhibition [POLQ]
Details: for IC50: curve of first compound; for viability, T/C: stronger effect = lower value
Summary of the method: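 Three-cell-type spheroids modelling solid tumor plus stroma served as the readout system; POL inhibitors were tested individually and in combination, concentration ranges set by clinical Cmax where known.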

[1] = second compound 0.0316 µM, first compound 0.0316 µM
[2] = second compound 0.0316 µM, first compound 0.1 µM
[3] = second compound 0.0316 µM, first compound 0.316 µM
[4] = second compound 0.0316 µM, first compound 1 µM
[5] = second compound 0.0316 µM, first compound 3.16 µM
[6] = second compound 0.0316 µM, first compound 10 µM
[7] = second compound 0.1 µM, first compound 0.0316 µM
[8] = second compound 0.1 µM, first compound 0.1 µM
[9] = second compound 0.1 µM, first compound 0.316 µM
[10] = second compound 0.1 µM, first compound 1 µM
[11] = second compound 0.1 µM, first compound 3.16 µM
[12] = second compound 0.1 µM, first compound 10 µM
[13] = second compound 0.316 µM, first compound 0.0316 µM
[14] = second compound 0.316 µM, first compound 0.1 µM
[15] = second compound 0.316 µM, first compound 0.316 µM
[16] = second compound 0.316 µM, first compound 1 µM
[17] = second compound 0.316 µM, first compound 3.16 µM
[18] = second compound 0.316 µM, first compound 10 µM
[19] = second compound 1 µM, first compound 0.0316 µM
[20] = second compound 1 µM, first compound 0.1 µM
[21] = second compound 1 µM, first compound 0.316 µM
[22] = second compound 1 µM, first compound 1 µM
[23] = second compound 1 µM, first compound 3.16 µM
[24] = second compound 1 µM, first compound 10 µM
[25] = second compound 3.16 µM, first compound 0.0316 µM
[26] = second compound 3.16 µM, first compound 0.1 µM
[27] = second compound 3.16 µM, first compound 0.316 µM
[28] = second compound 3.16 µM, first compound 1 µM
[29] = second compound 3.16 µM, first compound 3.16 µM
[30] = second compound 3.16 µM, first compound 10 µM
[31] = second compound 10 µM, first compound 0.0316 µM
[32] = second compound 10 µM, first compound 0.1 µM
[33] = second compound 10 µM, first compound 0.316 µM
[34] = second compound 10 µM, first compound 1 µM
[35] = second compound 10 µM, first compound 3.16 µM
[36] = second compound 10 µM, first compound 10 µM
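Further: luminescence signal used as surrogate measure of viable cells; spheroids exposed to compounds for seven days before readout.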
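Wherever viability, T/C is given: 100% = DMSO vehicle control viability as luminescence relative to vehicle.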

SMILES: COc1cc(C2c3cc4c(cc3C(OC3OC5COC(C)OC5C(O)C3O)C3COC(=O)C23)OCO4)cc(OC)c1O (stereo not drawn) + Cc1cccc(N(C)C(=O)C2C(O)CCN2c2nc(C)cc(C(F)(F)F)c2C#N)c1
- IC50 (second compound 0.0316 µM): 0.377 µM
- IC50 (second compound 0.1 µM): 0.366 µM
- IC50 (second compound 0.316 µM): 0.501 µM
- IC50 (second compound 1 µM): 0.337 µM
- IC50 (second compound 3.16 µM): 0.226 µM
- IC50 (second compound 10 µM): 0.246 µM
- viability, T/C [1]: 107%
- viability, T/C [2]: 92.9%
- viability, T/C [3]: 56.7%
- viability, T/C [4]: 19.1%
- viability, T/C [5]: 20.2%
- viability, T/C [6]: 14.3%
- viability, T/C [7]: 92.4%
- viability, T/C [8]: 88%
- viability, T/C [9]: 54.4%
- viability, T/C [10]: 19.6%
- viability, T/C [11]: 16.6%
- viability, T/C [12]: 14.1%
- viability, T/C [13]: 92.3%
- viability, T/C [14]: 90.1%
- viability, T/C [15]: 69.2%
- viability, T/C [16]: 21.1%
- viability, T/C [17]: 17.4%
- viability, T/C [18]: 15.9%
- viability, T/C [19]: 85.5%
- viability, T/C [20]: 83.3%
- viability, T/C [21]: 52%
- viability, T/C [22]: 17.4%
- viability, T/C [23]: 16.1%
- viability, T/C [24]: 15.9%
- viability, T/C [25]: 82.8%
- viability, T/C [26]: 77.4%
- viability, T/C [27]: 38.8%
- viability, T/C [28]: 15.2%
- viability, T/C [29]: 19.5%
- viability, T/C [30]: 16.6%
- viability, T/C [31]: 94.6%
- viability, T/C [32]: 74.8%
- viability, T/C [33]: 44.6%
- viability, T/C [34]: 20.7%
- viability, T/C [35]: 21.2%
- viability, T/C [36]: 18.2%

SMILES: CCCS(=O)(=O)Nc1ccc(F)c(C(=O)c2c[nH]c3ncc(-c4ccc(Cl)cc4)cc23)c1F + COC1C(OC(N)=O)C(O)C(Oc2ccc3c(O)c(NC(=O)c4ccc(O)c(CC=C(C)C)c4)c(=O)oc3c2C)OC1(C)C
- IC50 (second compound 0.0316 µM): > 10 µM
- IC50 (second compound 0.1 µM): > 10 µM
- IC50 (second compound 0.316 µM): 9.77 µM
- IC50 (second compound 1 µM): 8.99 µM
- IC50 (second compound 3.16 µM): > 10 µM
- IC50 (second compound 10 µM): 8.86 µM
- viability, T/C [1]: 105%
- viability, T/C [2]: 90.4%
- viability, T/C [3]: 101%
- viability, T/C [4]: 102%
- viability, T/C [5]: 98.6%
- viability, T/C [6]: 50.5%
- viability, T/C [7]: 95.7%
- viability, T/C [8]: 97.4%
- viability, T/C [9]: 110%
- viability, T/C [10]: 102%
- viability, T/C [11]: 92.4%
- viability, T/C [12]: 52.5%
- viability, T/C [13]: 98.8%
- viability, T/C [14]: 96.3%
- viability, T/C [15]: 106%
- viability, T/C [16]: 87.6%
- viability, T/C [17]: 109%
- viability, T/C [18]: 48.9%
- viability, T/C [19]: 104%
- viability, T/C [20]: 100%
- viability, T/C [21]: 94.5%
- viability, T/C [22]: 98.8%
- viability, T/C [23]: 86.2%
- viability, T/C [24]: 46%
- viability, T/C [25]: 109%
- viability, T/C [26]: 96.3%
- viability, T/C [27]: 106%
- viability, T/C [28]: 83.1%
- viability, T/C [29]: 98.5%
- viability, T/C [30]: 53.1%
- viability, T/C [31]: 92.8%
- viability, T/C [32]: 101%
- viability, T/C [33]: 104%
- viability, T/C [34]: 84.7%
- viability, T/C [35]: 119%
- viability, T/C [36]: 44.1%

SMILES: CCc1cc2c(N3CCc4c(cc(Cn5ccnc5)cc4-c4cn(C)nc4C(F)(F)F)C3=O)cc(C)nc2c(OC)n1 + Nc1ccc(C#CCN(C(=O)Cc2ncc(C(F)(F)F)cc2C(F)(F)F)c2ccc(F)cc2)nn1
- IC50 (second compound 0.0316 µM): 7.23 µM
- IC50 (second compound 0.1 µM): 8.6 µM
- IC50 (second compound 0.316 µM): 8.7 µM
- IC50 (second compound 1 µM): 7.14 µM
- IC50 (second compound 3.16 µM): 7.93 µM
- IC50 (second compound 10 µM): 4.85 µM
- viability, T/C [1]: 104%
- viability, T/C [2]: 94.1%
- viability, T/C [3]: 91.3%
- viability, T/C [4]: 77.4%
- viability, T/C [5]: 72.1%
- viability, T/C [6]: 41.3%
- viability, T/C [7]: 98.7%
- viability, T/C [8]: 88.1%
- viability, T/C [9]: 85.8%
- viability, T/C [10]: 82.1%
- viability, T/C [11]: 74.1%
- viability, T/C [12]: 45.4%
- viability, T/C [13]: 103%
- viability, T/C [14]: 91.4%
- viability, T/C [15]: 98.7%
- viability, T/C [16]: 81.2%
- viability, T/C [17]: 63.4%
- viability, T/C [18]: 48.1%
- viability, T/C [19]: 108%
- viability, T/C [20]: 86.4%
- viability, T/C [21]: 91.7%
- viability, T/C [22]: 80.4%
- viability, T/C [23]: 76%
- viability, T/C [24]: 40%
- viability, T/C [25]: 101%
- viability, T/C [26]: 110%
- viability, T/C [27]: 88.7%
- viability, T/C [28]: 71.3%
- viability, T/C [29]: 58.7%
- viability, T/C [30]: 46.7%
- viability, T/C [31]: 104%
- viability, T/C [32]: 86.2%
- viability, T/C [33]: 84.2%
- viability, T/C [34]: 79.3%
- viability, T/C [35]: 64.6%
- viability, T/C [36]: 29.9%

SMILES: COc1ccc([C@@H](O)c2cc(-c3ncnc4cc(N5CCOCC5)ccc34)c(F)cc2Cl)nn1 + Cc1cccc(N(C)C(=O)C2C(O)CCN2c2nc(C)cc(C(F)(F)F)c2C#N)c1
- IC50 (second compound 0.0316 µM): 3.25 µM
- IC50 (second compound 0.1 µM): 2.79 µM
- IC50 (second compound 0.316 µM): 2.48 µM
- IC50 (second compound 1 µM): 3.32 µM
- IC50 (second compound 3.16 µM): 2.88 µM
- IC50 (second compound 10 µM): 2.49 µM
- viability, T/C [1]: 103%
- viability, T/C [2]: 95.7%
- viability, T/C [3]: 94.4%
- viability, T/C [4]: 70.4%
- viability, T/C [5]: 53.5%
- viability, T/C [6]: 10.8%
- viability, T/C [7]: 101%
- viability, T/C [8]: 107%
- viability, T/C [9]: 106%
- viability, T/C [10]: 80.7%
- viability, T/C [11]: 47.3%
- viability, T/C [12]: 9.36%
- viability, T/C [13]: 105%
- viability, T/C [14]: 94.5%
- viability, T/C [15]: 102%
- viability, T/C [16]: 90.1%
- viability, T/C [17]: 39.2%
- viability, T/C [18]: 14.3%
- viability, T/C [19]: 105%
- viability, T/C [20]: 95.9%
- viability, T/C [21]: 98.7%
- viability, T/C [22]: 82.3%
- viability, T/C [23]: 51.9%
- viability, T/C [24]: 9.82%
- viability, T/C [25]: 99.5%
- viability, T/C [26]: 98.8%
- viability, T/C [27]: 97.2%
- viability, T/C [28]: 79.5%
- viability, T/C [29]: 47.7%
- viability, T/C [30]: 8.69%
- viability, T/C [31]: 122%
- viability, T/C [32]: 86.7%
- viability, T/C [33]: 89.5%
- viability, T/C [34]: 64.3%
- viability, T/C [35]: 57.1%
- viability, T/C [36]: 8.38%
